Data as given in US20130338574A1, “ORAL MEDICINAL COMPOSITION FOR PATIENTS UNDERGOING PERITONEAL DIALYSIS AND METHOD FOR USING SAME” (TOKAI UNIVERSITY EDUCATIONAL SYSTEM, priority 2010, published 2013).

How the values were obtained:
[1] = tested on: dicarbonyl compounds (3-deoxyglucosone) in the intraperitoneal fluid; assay: 3-deoxyglucosone in intraperitoneal fluid of uremic rat models, acid peritoneal dialysis fluid (Experimental Example 2); format: in vivo, Sprague-Dawley male rats; settings: oral 30 mg/rat/day, 7 days
Text: The uremic rat models were produced using 7-week-old (body weight: 300 g or less) Sprague-Dawley male rats (CLEA Japan, Inc.) by the method described in NPL 27 and NPL 28. More specifically, the above rats were first subjected to 1/3 nephrectomy under anesthesia, and then to 1/2 nephrectomy after a week, thereby producing 5/6 nephrectomy rats (rats with kidney subtotal excision). These rats were allowed to freely take a standard diet for experimental rats (containing 1.06% calcium, 0.9% phosphate, and 21% protein; CE2: CLEA Japan, Inc.) and tap water until the eve of slaughter. […]
When the quantitative analysis of pyridoxamine and dicarbonyl compounds (3-deoxyglucosone) in the samples was performed by liquid chromatography (HPLC), the above frozen test samples (serum and intraperitoneal fluid) were used after natural thawing at room temperature. […]
The quantitative analysis of dicarbonyl compounds (3-deoxyglucosone) was performed by reversed-phase high-performance liquid chromatography (HPLC) under the following conditions. The quantitative analysis was performed using a standard calibration curve previously prepared by measurement under the following HPLC conditions using standard solutions of 3-deoxyglucosone of known concentrations. […]
Detection: UV detection of absorbance at a wavelength of 315 nm (UV detector: Shimadzu Corporation)

[2] = Stability of pyridoxamine in peritoneal dialysis fluid (HPLC); format: physicochemical; settings: for peak height of pyridoxamine measured by HPLC / rate of peak height of pyridoxamine to first measurement day: 5 μg/ml
Text: • Peritoneal dialysis fluid: Dianeal (registered trademark)-N PD-4-1.5 (Baxter Limited) • Pyridoxamine dihydrochloride (Wako Pure Chemical Industries, Ltd.)
The above peritoneal dialysis fluid is composed of an acid solution containing glucose (pH 3.5 to 4.5) and an alkaline solution containing an electrolyte, such as sodium lactate (pH 7.0 to 7.7), which are respectively placed in upper and lower compartments of a two-compartment container divided by an openable partition. When peritoneal dialysis treatment is performed on a chronic renal failure patient, the partition is opened between the upper and lower compartments so that both solutions are mixed, and the mixture is used after its pH is adjusted to a neutral range (pH 6.5 to 7.5).
The glucose-containing solution (pH 4.15) in the upper compartment of the peritoneal dialysis fluid bag, the electrolyte solution (pH 7.02) in the lower compartment, and the mixture of the upper and lower compartment solutions (pH 6.76) were used as solvents, and 5 μg/ml of pyridoxamine dihydrochloride was dissolved in each solvent to obtain test samples. The test samples were left for three weeks at room temperature (25±5° C.), which was almost the same condition that renal failure patients generally store. During that period, sampling was conducted with time, and the amount of pyridoxamine contained in each test sample was measured.
The amount of pyridoxamine contained in the test samples was measured by high-performance liquid chromatography (HPLC) under the following conditions.
High-performance liquid chromatography: Shimadzu Corporation
Mobile phase: 0.1% trifluoroacetic acid-containing aqueous solution
Stationary phase: C18 column (Develosil), 4.6×150 mm, 5 μm; Nomura Chemical Co., Ltd.)
Detection: UV detection of absorbance at a wavelength of 294 nm (UV detector: Shimadzu Corporation)

[3] = lower-compartment solution (pH 7.02), room temperature, 1st day, time 0
[4] = lower-compartment solution (pH 7.02), room temperature, 2nd day, time 24
[5] = lower-compartment solution (pH 7.02), room temperature, 6th day, time 120
[6] = lower-compartment solution (pH 7.02), room temperature, 7th day, time 144
[7] = lower-compartment solution (pH 7.02), room temperature, 8th day, time 168
[8] = lower-compartment solution (pH 7.02), room temperature, 10th day, time 216
[9] = lower-compartment solution (pH 7.02), room temperature, 15th day, time 336
[10] = lower-compartment solution (pH 7.02), room temperature, 21st day, time 480
[11] = peritoneal dialysis fluid mixture (pH 6.76), room temperature, 1st day, time 0
[12] = peritoneal dialysis fluid mixture (pH 6.76), room temperature, 2nd day, time 24
[13] = peritoneal dialysis fluid mixture (pH 6.76), room temperature, 6th day, time 120
[14] = peritoneal dialysis fluid mixture (pH 6.76), room temperature, 7th day, time 144
[15] = peritoneal dialysis fluid mixture (pH 6.76), room temperature, 8th day, time 168
[16] = peritoneal dialysis fluid mixture (pH 6.76), room temperature, 10th day, time 216
[17] = peritoneal dialysis fluid mixture (pH 6.76), room temperature, 15th day, time 336
[18] = peritoneal dialysis fluid mixture (pH 6.76), room temperature, 21st day, time 480
[19] = upper-compartment solution (pH 4.15), room temperature, 1st day, time 0
[20] = upper-compartment solution (pH 4.15), room temperature, 2nd day, time 24
[21] = upper-compartment solution (pH 4.15), room temperature, 6th day, time 120
[22] = upper-compartment solution (pH 4.15), room temperature, 7th day, time 144
[23] = upper-compartment solution (pH 4.15), room temperature, 8th day, time 168
[24] = upper-compartment solution (pH 4.15), room temperature, 10th day, time 216
[25] = upper-compartment solution (pH 4.15), room temperature, 15th day, time 336
[26] = upper-compartment solution (pH 4.15), room temperature, 21st day, time 480

- peak height of pyridoxamine measured by HPLC [2, 3]: 13265
- rate of peak height of pyridoxamine to first measurement day [2, 3]: 100%
- peak height of pyridoxamine measured by HPLC [2, 4]: 12959
- rate of peak height of pyridoxamine to first measurement day [2, 4]: 98%
- peak height of pyridoxamine measured by HPLC [2, 5]: 13029
- rate of peak height of pyridoxamine to first measurement day [2, 5]: 98%
- peak height of pyridoxamine measured by HPLC [2, 6]: 12800
- rate of peak height of pyridoxamine to first measurement day [2, 6]: 96%
- peak height of pyridoxamine measured by HPLC [2, 7]: 12206
- rate of peak height of pyridoxamine to first measurement day [2, 7]: 92%
- peak height of pyridoxamine measured by HPLC [2, 8]: 11887
- rate of peak height of pyridoxamine to first measurement day [2, 8]: 90%
- peak height of pyridoxamine measured by HPLC [2, 9]: 11342
- rate of peak height of pyridoxamine to first measurement day [2, 9]: 86%
- peak height of pyridoxamine measured by HPLC [2, 10]: 10505
- rate of peak height of pyridoxamine to first measurement day [2, 10]: 79%
- peak height of pyridoxamine measured by HPLC [2, 11]: 11061
- rate of peak height of pyridoxamine to first measurement day [2, 11]: 100%
- peak height of pyridoxamine measured by HPLC [2, 12]: 9991
- rate of peak height of pyridoxamine to first measurement day [2, 12]: 90%
- peak height of pyridoxamine measured by HPLC [2, 13]: 10323
- rate of peak height of pyridoxamine to first measurement day [2, 13]: 93%
- peak height of pyridoxamine measured by HPLC [2, 14]: 9821
- rate of peak height of pyridoxamine to first measurement day [2, 14]: 89%
- peak height of pyridoxamine measured by HPLC [2, 15]: 9924
- rate of peak height of pyridoxamine to first measurement day [2, 15]: 90%
- peak height of pyridoxamine measured by HPLC [2, 16]: 9612
- rate of peak height of pyridoxamine to first measurement day [2, 16]: 87%
- peak height of pyridoxamine measured by HPLC [2, 17]: 9429
- rate of peak height of pyridoxamine to first measurement day [2, 17]: 85%
- peak height of pyridoxamine measured by HPLC [2, 18]: 6322
- rate of peak height of pyridoxamine to first measurement day [2, 18]: 57%
- pyridoxamine content relative to original content ([2]; upper-compartment and lower-compartment solutions before mixing, room temperature, within three weeks): 70%
- peak height of pyridoxamine measured by HPLC [2, 19]: 14051
- rate of peak height of pyridoxamine to first measurement day [2, 19]: 100%
- peak height of pyridoxamine measured by HPLC [2, 20]: 13271
- rate of peak height of pyridoxamine to first measurement day [2, 20]: 94%
- peak height of pyridoxamine measured by HPLC [2, 21]: 13084
- rate of peak height of pyridoxamine to first measurement day [2, 21]: 93%
- peak height of pyridoxamine measured by HPLC [2, 22]: 13316
- rate of peak height of pyridoxamine to first measurement day [2, 22]: 95%
- peak height of pyridoxamine measured by HPLC [2, 23]: 11561
- rate of peak height of pyridoxamine to first measurement day [2, 23]: 82%
- peak height of pyridoxamine measured by HPLC [2, 24]: 12139
- rate of peak height of pyridoxamine to first measurement day [2, 24]: 86%
- peak height of pyridoxamine measured by HPLC [2, 25]: 11518
- rate of peak height of pyridoxamine to first measurement day [2, 25]: 82%
- peak height of pyridoxamine measured by HPLC [2, 26]: 10605
- rate of peak height of pyridoxamine to first measurement day [2, 26]: 75%
- stability of pyridoxamine in the peritoneal dialysis fluid ([2]; upper-compartment solution, lower-compartment solution and mixture, left for three weeks): unstable
Compound: Cc1ncc(CO)c(CN)c1O.Cl.Cl [pyridoxamine dihydrochloride, Pyridoxamine dihydrochloride]
- 3-deoxyglucosone concentration in the peritoneal cavity relative to control group ([1]; acid peritoneal dialysis fluid): less than one-third
- 3-deoxyglucosone concentration in intraperitoneal fluid ([1]; acid peritoneal dialysis fluid (pH 4.5 to 5.5) Dianeal PD-4 4.25, 20 ml i.p., control group 30.8): 9.9 µg/mL
